Measured values published in patent US8097652B2, “AMPA receptor potentiators” (Eli Lilly and Company, priority 2006, dated 2012).

Biological target: T1, human iGluR4 (Homo sapiens, UniProt P48058)
T1 construct: expressed in transfected cells
Experiment: Whole-cell voltage clamp electrophysiology of AMPA receptor potentiation in HEK293 cells expressing human iGluR4
Format: cell-based
Conditions: HEK293 cells stably expressing human iGluR4; voltage-clamped at −60 mV; 1 mM glutamate; fit to Hill equation; read-out: activity (EC50 value, potency of potentiation of the current evoked by glutamate)
Text: HEK293 cells stably expressing human iGluR4 (obtained as described in European Patent Application Publication No. EP-A1-0583917) are used in the electrophysiological characterization of AMPA receptor potentiators. The extracellular recording solution contains (in mM): 140 NaCl, 5 KCl, 10 HEPES, 1 MgCl2, 2 CaCl2, 10 glucose, pH=7.4 with NaOH, 295 mOsm kg-1. The intracellular recording solution contains (in mM): 140 CsCl, 1 MgCl2, 10 HEPES, (N-[2-hydroxyethyl]piperazine-N1-[2-ethanesulfonic acid]) 10 EGTA (ethylene-bis(oxyethylene-nitrilo)tetraacetic acid), pH=7.2 with CsOH, 295 mOsm kg-1. With these solutions, recording pipettes have a resistance of 2-3 MΩ. […] Responses to 1 mM glutamate are then determined in the presence of test compound. […]
In order to determine the potency of the test compound, the concentration of the test compound, both in the bathing solution and co-applied with glutamate, is increased in half log units until the maximum effect is seen. […] Reversibility of test compound activity is determined by assessing control glutamate 1 mM responses. Once the control responses to the glutamate challenge are re-established, the potentiation of these responses by 100 μM cyclothiazide is determined by its inclusion in both the bathing solution and the glutamate-containing solution. In this manner, the efficacy of the test compound relative to that of cyclothiazide can be determined. […]

T1 sequence (P48058 22-902 limits assumed): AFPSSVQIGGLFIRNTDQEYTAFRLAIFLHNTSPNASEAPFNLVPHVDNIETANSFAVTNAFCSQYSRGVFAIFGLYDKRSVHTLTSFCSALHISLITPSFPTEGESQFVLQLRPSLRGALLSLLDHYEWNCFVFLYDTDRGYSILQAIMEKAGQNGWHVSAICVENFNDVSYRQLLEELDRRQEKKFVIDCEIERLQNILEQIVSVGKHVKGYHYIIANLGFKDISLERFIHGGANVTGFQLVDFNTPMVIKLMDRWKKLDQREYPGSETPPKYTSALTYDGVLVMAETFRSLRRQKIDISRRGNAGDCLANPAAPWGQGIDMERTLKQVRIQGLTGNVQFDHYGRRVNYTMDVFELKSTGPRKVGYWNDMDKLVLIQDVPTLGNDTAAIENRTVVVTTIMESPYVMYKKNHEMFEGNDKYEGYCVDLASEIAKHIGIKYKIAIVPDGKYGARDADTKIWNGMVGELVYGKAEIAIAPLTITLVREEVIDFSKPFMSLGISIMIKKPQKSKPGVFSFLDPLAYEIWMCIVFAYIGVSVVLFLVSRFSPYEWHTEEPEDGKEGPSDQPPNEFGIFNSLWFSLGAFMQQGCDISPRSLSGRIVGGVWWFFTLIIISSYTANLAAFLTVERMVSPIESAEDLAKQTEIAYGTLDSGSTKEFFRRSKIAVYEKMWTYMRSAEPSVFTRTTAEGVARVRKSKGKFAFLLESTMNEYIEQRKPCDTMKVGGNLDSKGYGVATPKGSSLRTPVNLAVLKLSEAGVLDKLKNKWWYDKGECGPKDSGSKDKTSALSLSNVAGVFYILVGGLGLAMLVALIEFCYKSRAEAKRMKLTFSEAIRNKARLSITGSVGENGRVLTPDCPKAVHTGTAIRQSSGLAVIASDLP

## CC(C)S(=O)(=O)NC[C@H](C)c1ccc(-c2ccc(C(=O)O)cc2C#N)cc1 [Example 1, 1-(R)-2-Cyano-4′-[1-methyl-2-(propane-2-sulfonylamino)-ethyl]-biphenyl-4-carboxylic acid]
  EC50: 188 ± 15.3 nM
